The target of data set [1] is Aβ1-42 (Homo sapiens (Human), UniProt P05067). In words: Aβ aggregation inhibition assay, thioflavin T fluorescence (Test Example 2). Format: biochemical. To be noted: 24 hr at 37° C. On the procedure:
Aβ3-42 aggregation Inhibition Assay
Aβ1-42 was dissolved in a 0.1% NH3 solution at a concentration of 100 μM and centrifuged for 1.5 hr at 200,000 g, and the supernatant are used in the assay. […] The mixtures were incubated for 24 hr at 37° C. in a black 96-well plate.

Data set [2] relates to cerebral cortex cells of embryonic Wistar rat. In words: Cytoprotection from Aβ1-42-induced cell cytotoxicity, MTT (Test Example 4). Format: cell-based. To be noted: compound 24 hr, then 5 μM Aβ1-42 for 48 hr. On the procedure:
Cytoprotection from Aβ1-42-Induced Cell Cytotoxicity
Cerebral cortex was obtained from 19-20 day-old embryonic Wistar rat. The tissue was minced, dissociated using scalpel blades and Pasteur pipette, and centrifuged at 100 rpm. Precipitated cells were filtered using […] cell strainer, and single cells were prepared. These cells were suspended in Eagle's Minimum Essential Medium (EMEM) containing 10% Fetal bovine serum, and plated into 48-well tissue culture plates (Becton Dickinson) at 200 μL/well and 1.7×10^5 cells/cm^2. Cultures were incubated at 37° C. in a humidified atmosphere of 5% CO2.
After 3, 5, and 7 days in culture, the medium was replaced.
After 9 days, compounds were dissolved in DMSO and diluted in culture media so that the final concentration of DMSO in culture media was 0.1%, and each solution was added to each well at […] for 24 hr. The control solution contained 0.1% DMSO.
After 24 hr, Aβ1-42 was dissolved in a 0.1% NH3 solution at a concentration of 500 μM and diluted in culture media to a final concentration of 5 μM, and the Aβ solution was added to each well at […] for 48 hr. After 48 hr, cultures were treated with 0.5% MTT solution (Nacalai Tesque) for 35 min. The MTT solution was replaced with 2-propanol (200 μL), and the culture plates were shook to dissolve formazan. Absorption of the solution was measured at 570 nm.

In data set [3] the target is recombinant human BACE-1 (Homo sapiens (Human), UniProt P56817). In words: Calculation of 50% inhibitory concentration (IC50) of BACE-1 (Test Example 5). The class given is biochemical. The following applies: 37° C., 2.5 hr, fluorescent substrate peptide. On the procedure: Compounds were dissolved in 0.1 M sodium acetate buffer (with 150 mM sodium chloride, pH 4.5) to each concentration with DMSO (concentration of compounds: 0.3, 0.9, 3.0, 9.0, and 30.0). The final concentration of DMSO was 10%. The solution with no compound was used as a negative control. 15 μL of these solutions, recombinant human BACE-1 (1.0 U/ml, Invitrogen), and the fluorescent substrate peptide (2.5 nM) were mixed in a black 384-well plate (Costar). Then, mixtures were incubated in the dark at 37° C. for 2.5 hr. The fluorescence intensities of the mixtures were measured at 540 nm for excitation and at 590 nm for emission. The inhibition ratio was calculated as a percentage of the negative control. The sequence of the peptide was […] and labeled with Cy3 at Ser-1 and with Cy5Q at Lys-9. Final concentrations of compounds were as follows: […].
Chain of recombinant human BACE-1 (P56817 46-501): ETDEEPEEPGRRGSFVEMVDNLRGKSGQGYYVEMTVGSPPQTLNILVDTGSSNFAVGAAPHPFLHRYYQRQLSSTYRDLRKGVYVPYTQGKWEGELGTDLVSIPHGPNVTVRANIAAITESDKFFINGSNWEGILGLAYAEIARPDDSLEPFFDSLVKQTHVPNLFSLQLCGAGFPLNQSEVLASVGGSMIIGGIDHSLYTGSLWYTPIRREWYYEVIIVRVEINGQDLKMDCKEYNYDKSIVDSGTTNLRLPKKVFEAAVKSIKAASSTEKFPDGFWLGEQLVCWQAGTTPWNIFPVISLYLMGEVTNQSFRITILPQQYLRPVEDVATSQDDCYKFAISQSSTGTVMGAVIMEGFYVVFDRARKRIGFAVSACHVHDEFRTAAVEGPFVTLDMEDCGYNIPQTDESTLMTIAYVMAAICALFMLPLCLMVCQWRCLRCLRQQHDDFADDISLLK

Data set [4] has as its target recombinant human β-secretase (rhBACE-1) (Homo sapiens (Human), UniProt P56817). Kind of data set: β-Secretase enzyme inhibition assay (Test Example 1). The class given is biochemical. The following applies: compound solution 3 μM (FIG. 1 legend: 1.0 μM), 37° C., 2 hr, fluorescent substrate peptide. The procedure: β-Secretase Enzyme Inhibition Assay
Compounds were dissolved in dimethylsulfoxide (DMSO), and further diluted in 0.1 M sodium acetate buffer (with 150 mM sodium chloride, pH 4.5). The solution with no compound was used as a negative control. Then, 100 μL of these solutions (compound concentration: 3 μM), 1 μL of recombinant human β-secretase (rhBACE-1, R&D), and 5 μL of the fluorescent substrate peptide were mixed in a black 96-well plate (Nunc). After mixtures were incubated in the dark at 37° C. for 2 hr, the fluorescence intensities of the mixtures were measured by fluorescence microplate reader (Wallac) at 540 nm for excitation and at 590 nm for emission. The inhibition ratio was calculated as a percentage of the negative control. The sequence of the peptide was […] and labeled with fluorescent donor (Cy3) at Ser-1 and with quencher (Cy5Q) at Lys-9, respectively (Invitrogen).

Molecules are shown by their SMILES.

Chain of recombinant human β-secretase (rhBACE-1) (P56817 46-501): as above
Chain of Aβ1-42 (P05067 672-713): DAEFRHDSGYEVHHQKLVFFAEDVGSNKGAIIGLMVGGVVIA

Regarding `Cc1ccc(/C=C/C(=O)CC(=O)/C=C/c2ccc(O)cc2)cc1C` [CU056, (1E,6E)-1-(3,4-dimethylphenyl)-7-(4-hydroxyphenyl)hepta-1,6-diene-3,5-dione], the melting point (commonly the temperature, or range, at which the solid turns liquid) was in the range of 150 to 152 °C. Also, the IC50 (as a rule, the concentration needed to halve the response being measured) in data set [1] came out at 280 nM.

`O=C(/C=C/c1ccc(O)cc1)CC(=O)/C=C/c1cccc(O)c1` [CU078, (1E,6E)-1-(3-hydroxyphenyl)-7-(4-hydroxyphenyl)hepta-1,6-diene-3,5-dione]: the melting point was 217 °C. The same compound returned an IC50 in data set [1] of 90 nM. Further, the “MEC, minimal effective concentration (cytoprotection)” value (shortened to “MEC, minimal effective concentration”) in data set [2] turned out to be 0.1 µM.

For the compound `O=C(/C=C/c1ccc(O)cc1)CC(=O)/C=C/c1ccccc1O` [CU080, (1E,6E)-1-(2-hydroxyphenyl)-7-(4-hydroxyphenyl)hepta-1,6-diene-3,5-dione], the “MEC, minimal effective concentration” value in data set [2] was determined as 1.0 µM.

`O=C(/C=C/c1ccc(O)cc1)CC(=O)/C=C/c1cc(O)cc(O)c1` [CU092, (1E,6E)-1-(3,5-dihydroxyphenyl)-7-(4-hydroxyphenyl)hepta-1,6-diene-3,5-dione]: the melting point was in the range of 238 to 241 °C. For the same compound, in data set [2], the “MEC, minimal effective concentration” value was 3.0 µM.

On to `O=C(/C=C/c1ccc(O)cc1)CC(=O)/C=C/c1cc(O)ccc1[N+](=O)[O-]` [CU131, (1E,6E)-1-(4-hydroxyphenyl)-7-(5-hydroxy-2-nitrophenyl)hepta-1,6-diene-3,5-dione], for which the melting point is 187 to 194 °C. Further, the “inhibitory effect on BACE-1 activity (IC50 shown in FIG. 2)” value (from here on “inhibitory effect on BACE-1 activity”) in data set [3] is given as “inhibitory effect on BACE-1 activity at relatively low concentration”.

Turning to `COc1cc(/C=C/C(=O)CC(=O)/C=C/c2cc(O)ccc2[N+](=O)[O-])ccc1O` [CU132, (1E,6E)-1-(4-hydroxy-3-methoxyphenyl)-7-(5-hydroxy-2-nitrophenyl)hepta-1,6-diene-3,5-dione], the melting point was in the range of 147 to 152 °C. In addition, the “inhibitory effect on BACE-1 activity” value in data set [3] was “inhibitory effect on BACE-1 activity at relatively low concentration”.

`COc1ccc(/C=C/C(=O)CC(=O)/C=C/c2cc(O)ccc2[N+](=O)[O-])cc1O` [CU133, (1E,6E)-1-(3-hydroxy-4-methoxyphenyl)-7-(5-hydroxy-2-nitrophenyl)hepta-1,6-diene-3,5-dione] showed a melting point of 107 to 111 °C. Besides, the “inhibitory effect on BACE-1 activity” value in data set [3] was “inhibitory effect on BACE-1 activity at relatively low concentration”.

For `COc1cc(N(C)C)ccc1/C=C/C(=O)CC(=O)/C=C/c1ccc(O)cc1` [CU153, (1E,6E)-1-(4-dimethylamino-2-methoxyphenyl)-7-(4-hydroxyphenyl)hepta-1,6-diene-3,5-dione], the melting point is 100 to 105 °C. In data set [1], this compound yielded an IC50 of 880 nM.

Regarding `COc1ccc(O)cc1/C=C/C(=O)CC(=O)/C=C/c1ccc(O)cc1` [CU177, (1E,6E)-1-(4-hydroxyphenyl)-7-(5-hydroxy-2-methoxyphenyl)hepta-1,6-diene-3,5-dione], the melting point lay within 183 to 186 °C. In addition, inhibition in data set [1] was half-maximal at 1100 nM (IC50).

Turning to `O=C(/C=C/c1ccc(O)cc1)CC(=O)/C=C/c1ccc2cc[nH]c2c1` [CU189, (1E,6E)-1-(4-hydroxyphenyl)-7-(1H-indol-6-yl)hepta-1,6-diene-3,5-dione], the melting point was 238 to 243 °C. In addition, the “inhibition of BACE-1 enzyme activity (inhibitory activities (%) shown in FIG. 1)” value in data set [4] is “strongly inhibited”. Further, the “inhibitory effect on BACE-1 activity” value in data set [3] is recorded as “inhibitory effect on BACE-1 activity at relatively low concentration”.

In turn, `COc1ccc(/C=C/C(=O)CC(=O)/C=C/c2ccc3[nH]ccc3c2)cc1O` [CU193, (1E,6E)-1-(3-hydroxy-4-methoxyphenyl)-7-(1H-indol-5-yl)hepta-1,6-diene-3,5-dione] registered a melting point of 182 to 185 °C. Moreover, the “inhibition of BACE-1 enzyme activity (inhibitory activities (%) shown in FIG. 1)” value in data set [4] was “strongly inhibited”.

`CN(C)c1ccc(/C=C/C(=O)CC(=O)/C=C/c2ccc(O)cc2)c([N+](=O)[O-])c1` [CU194, (1E,6E)-1-(4-dimethylamino-2-nitrophenyl)-7-(4-hydroxyphenyl)hepta-1,6-diene-3,5-dione] returned a melting point of 217 to 222 °C. Moreover, the “inhibition of BACE-1 enzyme activity (inhibitory activities (%) shown in FIG. 1)” value in data set [4] is “strongly inhibited”.

In turn, `O=C(/C=C/c1cc(O)ccc1[N+](=O)[O-])CC(=O)/C=C/c1cc(O)ccc1[N+](=O)[O-]` [CU381, (1E,6E)-1,7-bis(5-hydroxy-2-nitrophenyl)hepta-1,6-diene-3,5-dione] showed a melting point of 253 to 262 °C. In data set [3], the “inhibitory effect on BACE-1 activity” value was “inhibitory effect on BACE-1 activity at relatively low concentration”.

Regarding `O=C(/C=C/c1ccc(O)cc1)CC(=O)/C=C/c1c[nH]c2cccc([N+](=O)[O-])c12` [CU461, (1E,6E)-1-(4-hydroxyphenyl)-7-(4-nitro-1H-indol-3-yl)hepta-1,6-diene-3,5-dione], the melting point is 228 to 232 °C. Moreover, in data set [3], the “inhibitory effect on BACE-1 activity” value is recorded as “inhibitory effect on BACE-1 activity at relatively low concentration”.

`O=C(/C=C/c1ccc(O)cc1)CC(=O)/C=C/c1cc(OCc2ccccc2)ccc1[N+](=O)[O-]` [CU475, (1E,6E)-1-(5-benzyloxy-2-nitrophenyl)-7-(4-hydroxyphenyl)hepta-1,6-diene-3,5-dione] registered a melting point of 168 to 172 °C. For the same compound, in data set [3], the “inhibitory effect on BACE-1 activity” value was “inhibitory effect on BACE-1 activity at relatively low concentration”.

`O=C(/C=C/c1ccc2ccn(Cc3ccccc3)c2c1)CC(=O)CCc1ccc(O)cc1` [CU520, (E)-1-(1-benzyl-1H-indol-6-yl)-7-(4-hydroxyphenyl)hept-1-ene-3,5-dione] returned a melting point of 45 to 50 °C. Moreover, the “inhibitory effect on BACE-1 activity” value in data set [3] is on record as “inhibitory effect on BACE-1 activity at relatively low concentration”.

Turning to `O=C(/C=C/c1cc(O)ccc1[N+](=O)[O-])CC(=O)CCc1ccc(O)cc1` [CU530, (E)-1-(5-hydroxy-2-nitrophenyl)-7-(4-hydroxyphenyl)hept-1-ene-3,5-dione], the melting point fell in the range of 62 to 70 °C. Besides, the “inhibitory effect on BACE-1 activity” value in data set [3] was “inhibitory effect on BACE-1 activity at relatively low concentration”.

On to `O=C(/C=C/c1ccc(O)cc1)CC(=O)/C=C/c1cc(OCc2ccccc2)ccc1Br` [CU531, (1E,6E)-1-(5-benzyloxy-2-bromophenyl)-7-(4-hydroxyphenyl)hepta-1,6-diene-3,5-dione], for which the “inhibitory effect on BACE-1 activity” value in data set [3] is given as “inhibitory effect on BACE-1 activity at relatively low concentration”.

In turn, `O=C(/C=C/c1ccc(O)cc1)CC(=O)/C=C/c1cc(O)ccc1Br` [CU532, (1E,6E)-1-(2-bromo-5-hydroxyphenyl)-7-(4-hydroxyphenyl)hepta-1,6-diene-3,5-dione] returned a melting point of 182 to 186 °C. Further, the “inhibitory effect on BACE-1 activity” value in data set [3] is listed as “inhibitory effect on BACE-1 activity at relatively low concentration”.

Take `COc1cc(/C=C/C(=O)CC(=O)/C=C/c2ccc(O)c(OC)c2)ccc1O` [curcumin, reference compound]: in data set [2], the “MEC, minimal effective concentration” value came out at 10 µM.

Source of the values: patent publication US8962674B2 (Tokyo Institute of Technology, priority 2006, dated 2015).
